Reference: the NIST ThermoML archive (doi:10.1021/acs.jced.6b00901)
Numbers after ± are expanded uncertainties.

Test: refractive index (Na D-line) (dimensionless)
Conditions: 101.33 kPa, Liquid, Standard Abbe refractometry

SMILES | refractive index (283.15 K) | refractive index (288.15 K) | refractive index (293.15 K) | refractive index (298.15 K) | refractive index (303.15 K) | refractive index (308.15 K) | refractive index (313.15 K) | refractive index (318.15 K) | refractive index (323.15 K)
C=Cc1ccccc1 [styrene] | 1.5533 ± 0.0004 | 1.5505 ± 0.0004 | 1.5472 ± 0.0004 | 1.544 ± 0.0004 | 1.5409 ± 0.0004 | 1.538 ± 0.0004 | 1.5352 ± 0.0004 | 1.5321 ± 0.0004 | 1.5291 ± 0.0004
C1=CC2C3C=CC(C3)C2C1 (configuration not stated) [3a,4,7,7a-tetrahydro-4,7-methanoindene] |  |  |  |  |  | 1.5069 ± 0.0004 | 1.5045 ± 0.0004 | 1.5019 ± 0.0004 | 1.4991 ± 0.0004
CCOC(=O)c1ccccc1C(=O)OCC [diethyl phthalate] | 1.507 ± 0.0004 | 1.5048 ± 0.0004 | 1.5027 ± 0.0004 | 1.5005 ± 0.0004 | 1.4984 ± 0.0004 | 1.4962 ± 0.0004 | 1.4939 ± 0.0004 | 1.4917 ± 0.0004 | 1.4897 ± 0.0004
